Results taken from ChEMBL document CHEMBL1201862, “PubChem BioAssay data set” (2004).
Values joined by “and” are separate entries in the source; they are usually repeats but may differ in a detail not shown here. Identical values can stand only once. Active and inactive are the calls of the source.

Tests used:
Cytochrome P450 2D6 = Cytochrome P450 2D6 (Homo sapiens, UniProt P10635);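 further: CYP2D6 member of a cytochrome P450 panel assay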
INS1 = assay: beta cell apoptosis inhibitors, cytokine rescue, dose response, luminescence, retest (AID 449756); assay type: functional, cell-based; settings: Rattus norvegicus;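 further: cell death triggered by IL-1 beta plus TNF-alpha plus IFN-gamma mixture; protective hits raise ATP signal compared with cytokine alone wells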
Cytochrome P450 3A4 = Cytochrome P450 3A4 (Homo sapiens, UniProt P08684);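 further: CYP3A4 tested as one member of a cytochrome P450 panel screen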
Sequence of Cytochrome P450 3A4 (P08684 whole entry): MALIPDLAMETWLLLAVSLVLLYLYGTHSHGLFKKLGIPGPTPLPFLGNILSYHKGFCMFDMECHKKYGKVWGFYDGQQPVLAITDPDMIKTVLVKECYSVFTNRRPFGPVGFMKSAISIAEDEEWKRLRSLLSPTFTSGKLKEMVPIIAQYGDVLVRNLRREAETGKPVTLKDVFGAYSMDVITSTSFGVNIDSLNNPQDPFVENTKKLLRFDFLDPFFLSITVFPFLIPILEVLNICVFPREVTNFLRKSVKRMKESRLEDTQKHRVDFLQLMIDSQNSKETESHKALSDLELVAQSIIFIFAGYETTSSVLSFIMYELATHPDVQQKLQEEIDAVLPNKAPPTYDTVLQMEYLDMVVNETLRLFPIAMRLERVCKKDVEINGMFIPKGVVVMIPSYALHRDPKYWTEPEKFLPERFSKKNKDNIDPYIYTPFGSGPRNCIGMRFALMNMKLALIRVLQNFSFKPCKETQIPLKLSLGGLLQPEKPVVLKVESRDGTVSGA

Cytochrome P450 2C9 = Cytochrome P450 2C9 (Homo sapiens, UniProt P11712)
Sequence of Cytochrome P450 2C9 (P11712 whole entry): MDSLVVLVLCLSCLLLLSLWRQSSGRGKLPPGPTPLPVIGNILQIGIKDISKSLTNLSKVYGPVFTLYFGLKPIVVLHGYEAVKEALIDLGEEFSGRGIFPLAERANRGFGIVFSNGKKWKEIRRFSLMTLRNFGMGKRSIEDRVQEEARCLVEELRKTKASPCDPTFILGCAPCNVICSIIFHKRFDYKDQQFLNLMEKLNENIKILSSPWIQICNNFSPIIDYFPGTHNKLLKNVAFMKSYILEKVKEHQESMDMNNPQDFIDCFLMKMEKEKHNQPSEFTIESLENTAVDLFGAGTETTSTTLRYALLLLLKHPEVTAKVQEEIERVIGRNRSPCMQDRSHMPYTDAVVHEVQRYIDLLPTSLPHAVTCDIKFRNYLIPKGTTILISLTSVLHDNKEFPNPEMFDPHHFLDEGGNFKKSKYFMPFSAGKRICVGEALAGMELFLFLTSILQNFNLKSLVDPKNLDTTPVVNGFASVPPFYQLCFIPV

Cytochrome P450 2C19 = Cytochrome P450 2C19 (Homo sapiens, UniProt P33261); assay: Cytochrome panel assay with activity outcomes. Panel member name: p450-cyp2c19 Compounds with AC50 equal or less than 10 uM are considered active; assay type: functional; settings: read-out: AC50
Sequence of Cytochrome P450 2C19 (P33261 whole entry): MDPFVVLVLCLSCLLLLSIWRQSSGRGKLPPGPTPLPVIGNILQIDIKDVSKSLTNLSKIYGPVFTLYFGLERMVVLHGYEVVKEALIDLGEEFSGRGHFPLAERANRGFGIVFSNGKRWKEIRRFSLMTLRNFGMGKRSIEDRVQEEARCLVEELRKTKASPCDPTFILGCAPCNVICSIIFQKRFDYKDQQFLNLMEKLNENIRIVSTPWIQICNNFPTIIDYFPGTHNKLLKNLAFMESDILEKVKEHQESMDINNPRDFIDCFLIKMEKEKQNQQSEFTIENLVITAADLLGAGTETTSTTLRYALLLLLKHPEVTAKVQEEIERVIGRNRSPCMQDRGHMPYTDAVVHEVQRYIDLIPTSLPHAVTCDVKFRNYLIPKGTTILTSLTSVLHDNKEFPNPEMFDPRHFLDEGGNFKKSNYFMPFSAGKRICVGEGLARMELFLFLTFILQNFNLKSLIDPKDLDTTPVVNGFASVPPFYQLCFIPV

[1] = test system: Streptococcus sp. 'group A'; assay: growth inhibition of control SK(-) GAS strain, dose response, counter-screen for streptokinase expression inhibitor project, luminescence, kanamycin, BacTiterGlo, confirmation (AID 1900); assay type: functional, organism-based
Streptococcus = assay: Group A Streptococcus viability loss, dose response, counter-screen for streptokinase expression inhibitor project, luminescence, BacTiterGlo (AID 1915); assay type: functional, organism-based;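 further: potency for reduction of bacterial viability or growth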

Sequence of Cytochrome P450 2D6 (P10635 whole entry): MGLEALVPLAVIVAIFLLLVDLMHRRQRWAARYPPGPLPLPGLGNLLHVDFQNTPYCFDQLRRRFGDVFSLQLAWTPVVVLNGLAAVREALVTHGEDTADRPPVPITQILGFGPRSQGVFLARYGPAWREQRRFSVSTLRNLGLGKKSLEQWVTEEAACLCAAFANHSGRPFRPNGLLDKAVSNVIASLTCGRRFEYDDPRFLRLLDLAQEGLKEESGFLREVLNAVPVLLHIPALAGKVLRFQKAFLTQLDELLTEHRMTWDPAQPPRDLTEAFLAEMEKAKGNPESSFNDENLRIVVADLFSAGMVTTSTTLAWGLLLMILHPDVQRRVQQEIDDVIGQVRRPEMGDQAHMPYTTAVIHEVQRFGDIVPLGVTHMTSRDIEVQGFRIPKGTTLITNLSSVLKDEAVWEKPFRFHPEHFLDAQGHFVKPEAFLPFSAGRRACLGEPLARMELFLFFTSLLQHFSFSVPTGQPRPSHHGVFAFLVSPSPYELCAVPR

Row | Compound | AC50 (Cytochrome P450 2D6) | AC50 (Cytochrome P450 3A4) | other results
1 | CCOC(=O)c1c(-c2ccccc2)csc1NC(=O)c1cccc(N2C(=O)CCC2=O)c1 | 0.0112 µM (inconclusive) | – | –
2 | C=C(CC1(C(C)NP(=O)(c2ccccc2)c2ccccc2)CC1)c1ccccc1 (stereo not drawn) | 39.8 µM (inconclusive) | – | –
3 | C#CCn1c(S(=O)(=O)Cc2ccc(OC)cc2)nc(-c2ccccc2)c1-c1ccccc1 | 14.1 µM (inconclusive) | – | –
4 | CCOC(=O)C1=C(CCc2ccccc2)NC(=O)NC1c1ccc2ccccc2c1 (stereo not drawn) | – | – | AC50 (INS1): 31.5 µM (active)
5 | CS(=O)(=O)N1CCC[C@@]2(CCN(C(=O)Nc3cccc(C#N)c3)C2)C1 | – | 20 µM (inconclusive) | –
6 | CC(=O)OC[C@@H]1O[C@H](C/C=N\O[C@@H](C)c2cn([C@H](CO)Cc3ccccc3)nn2)C=C[C@@H]1OC(C)=O | – | 5.01 µM (inconclusive) and 3.98 µM (inconclusive) | –
7 | COc1ncc2nc(-c3ccc(Cl)cc3)c(=O)n(Cc3cccs3)c2n1 | 2.51 µM (inconclusive) | – | AC50 (Cytochrome P450 2C9): 15.8 µM (inconclusive)
8 | Cc1noc(C)c1-c1nccc(NCc2ccccc2)n1 | 39.8 µM (inconclusive) | – | –
9 | c1ccc(CNc2cc(-c3ccoc3)ncn2)cc1 | – | 12.6 µM (inconclusive) | –
10 | OC(COC(c1ccc(F)cc1)c1ccc(F)cc1)CN1CCc2ccccc2C1 (stereo not drawn) | – | – | AC50 (INS1): 18.2 µM (active)
11 | COC(=O)[C@@]1(Cc2ccccc2)[C@H]2c3cc(C(=O)N(C)C)n(Cc4cc(C)n(C)n4)c3C[C@H]2CN1C(=O)c1ccccc1 | 39.8 µM (inconclusive) | – | –
12 | O=C(Cn1ccc2ccccc2c1=O)N1CCN(c2cccc(Cl)c2)CC1 | – | 3.16 µM (inconclusive) | AC50 (Cytochrome P450 2C19): 7.08 µM (inconclusive)
13 | O=C(c1ccncc1)N1CCC[C@@]2(CCN(Cc3nccs3)C2)C1 | 20 µM (inconclusive) | – | –
14 | COc1cc(CN2CCN(C(=O)COc3ccccc3)CC2)cc(OC)c1OC | – | 22.4 µM (inconclusive) | AC50 (Cytochrome P450 2C9): 22.4 µM (inconclusive)
15 | Cc1cnc(CNc2ncncc2-c2ccccc2CN(C)C)cn1 | 39.8 µM (inconclusive) | – | –
16 | CC(=O)N1N=C(c2cccc([N+](=O)[O-])c2)OC1c1ccccc1Cl (stereo not drawn) | – | 39.8 µM (inconclusive) | –
17 | c1cc(CCN2CCCCC2)ccn1 | – | 6.31 µM (inconclusive) | –

Row | Compound | AC50 (Cytochrome P450 2D6) | AC50 (Cytochrome P450 3A4) | other results
18 | O=C(CSc1ccccc1)Nc1ccc(N2CCN(c3ccccc3)CC2)c(F)c1 | – | – | AC50 (Cytochrome P450 2C19): 39.8 µM (inconclusive); AC50 (Cytochrome P450 2C9): 0.447 µM (inconclusive)
19 | Cn1c(=O)c(-c2ccc(F)c(F)c2)nc2cncnc21 | – | 20 µM (inconclusive) | –
20 | Cc1cnc(CNc2cc(-c3ccccc3CN(C)C)ncn2)cn1 | 12.6 µM (inconclusive) | – | –
21 | O=C(c1ccco1)N1CCC[C@@]2(CCN(Cc3ccccc3)C2)C1 | – | 20 µM (inconclusive) | –
22 | O=C(CSc1nnc(-c2ccncc2)n1Cc1ccccc1)Nc1nccs1 | 17.8 µM (inconclusive) | – | –
23 | O=c1c(-c2ccc(Cl)cc2)nc2cnc(N3CCNCC3)nc2n1CCc1ccccc1 | – | 31.6 µM (inconclusive) | –
24 | Fc1ccc(N=C(S)NCCc2ccccc2)c(F)c1F | 15.8 µM (inconclusive) | – | –
25 | O=C(c1csnn1)N1CCC2(CC1)CCN(c1ccncc1)CC2 | – | 15.8 µM (inconclusive) | AC50 (Cytochrome P450 2C19): 39.8 µM (inconclusive); AC50 (Cytochrome P450 2C9): 15.8 µM (inconclusive)
26 | COC(=O)[C@@]1(Cc2ccc(OC)cc2)[C@@H]2[C@@H](CC(=O)[C@H]2CC(=O)C(=O)N2CCCC2)CN1C(=O)c1ccccc1 | – | – | AC50 (Cytochrome P450 2C19): 25.1 µM (inconclusive); AC50 (Cytochrome P450 2C9): 20 µM (inconclusive)
27 | Nc1ncnc2c1cnn2-c1ccccc1 | – | – | AC50 (Cytochrome P450 2C19): 4.47 µM (inconclusive)
28 | C[n+]1ccc(/C=C/c2ccc(Br)cc2)cc1 | – | – | AC50 (Cytochrome P450 2C19): 3.98 µM (inconclusive)
29 | Cc1cc(N/N=C/c2cccc(Cl)c2)nc(-n2nc(C)cc2C)n1 | – | – | EC50 [1]: 1.34 µM (active); EC50 (Streptococcus): 1.61 µM (active); AC50 (INS1): 2.69 µM (active)
30 | CCOC(=O)c1cnc(-n2nc(C)cc2C)nc1Nc1ccc(O)cc1 | – | – | AC50 (INS1): 1.67 µM (active)
31 | O=C(COc1ccc([N+](=O)[O-])cc1)N[N-][C+]1CCCC1 | – | – | AC50 (Cytochrome P450 2C19): 1.78 µM (inconclusive); AC50 (Cytochrome P450 2C9): 0.0251 µM (inconclusive)
32 | CS(=O)(=O)N1CCC2(CCCN(Cc3ccc(C#N)cc3)C2)CC1 | 20 µM (inconclusive) | – | –
33 | Cc1ccc(-c2csc(NC(=O)c3c(C)noc3C)n2)s1 | – | – | AC50 (INS1): 3.99 µM (active)
